# Reference: patent publication US8809278B2, “Cyclic tetrapeptides” (University of Kansas, priority 2008, dated 2014)
# Entries after “also recorded” stand apart in the source; their conditions may differ. Where two headings read alike, the source gives them in different places. Where a SMILES comes first, the peptide text is derived from it.
# Columns and labels:
# [1] = tested on: kappa-opioid receptor (KOR); conditions: literature reports; cited from earlier work
# [2] = molecular target: T1, μ opioid receptors (MOR) (Rattus norvegicus, UniProt P33535); assay: Radioligand binding, μ opioid receptor, CHO cells ([3H][D-Ala2,NMePhe4,glyol]enkephalin)
# T1 construct: expressed in transfected cells
# Method: (§1) Opioid receptor affinities were determined for the cyclic tetrapeptides using Chinese hamster ovary cells stably expressing κ, μ and δ opioid receptors, and their efficacies at κ opioid receptors were determined in the adenylyl cyclase assay as previously described (Arttamangkul, et al., J. Med. Chem. 1997, 40, 1211-1218; Soderstrom, et al., Eur. J. Pharmacol. 1997, 338, 191-197). [^3H]Diprenorphine, [^3H][D-Ala^2,NMePhe^4,glyol]enkephalin and [^3H]cyclo[D-Pen^2,D-Pen^5]enkephalin were used as the radioligands in the binding assays for κ, μ and δ opioid receptors, respectively. In the adenylyl cyclase assay, the efficacies were determined by measuring the inhibition of adenylyl cyclase by 10 μM of the peptides relative to dynorphin A-(1-13) amide (100%).
# (§2) The study was done using [^3H]diprenorphine, [^3][D-Ala^2,NMePhe^4,glyol]enkephalin and [^3H]cyclo[D-Pen^2,D-Pen^5]enkephalin binding to CHO membranes expressing KOR, MOR and DOR, respectively.
# [3] = molecular target: T2, δ opioid receptors (DOR) (Mus musculus, UniProt P32300); assay: Radioligand binding, δ opioid receptor, CHO cells ([3H]cyclo[D-Pen2,D-Pen5]enkephalin)
# T2 construct: expressed in transfected cells
# Method: as §1, §2
# [4] = molecular target: κ opioid receptors (KOR); assay type: binding; conditions: for Ki: [3H]diprenorphine
# Method: as §1, §2
# [5] = molecular target: T3, KOR in mouse brain (Mus musculus, UniProt P33534); assay: Affinity for KOR in mouse brain; assay type: binding
# T3 construct: from tissue; host or cells: mouse brain
# [6] = tested on: C57B1/6J mice; assay: 55° C. warm-water tail-withdrawal assay, agonist (antinociceptive) activity; assay type: in vivo, mouse; conditions: for agonist activity in the 55° C. warm water tail withdrawal assay: i.c.v. administration; for pattern of opioid activity in vivo: tail-withdrawal assay
# Method: (§3) An antinociceptive (analgesic) assay was performed to test the KOR agonist activity of cyclic tetrapeptides cyclo[Trp-Phe-D-Pro-Phe] […] After determining baseline tail-withdrawal latencies, mice received a single intracerebroventricular (i.c.v.) dose of vehicle (artificial cerebrospinal fluid, 146 mM NaCl, 2.7 mM KCl, 1.2 mM, CaCl2, 1.0 mM MgCl2) or a dose of test compound i.c.v. and the tail-withdrawal latency was again measured. For i.c.v. injections, each mouse was lightly anesthetized with isoflurane, an incision was made in the scalp, and the injection was made 2 mm lateral and 2 mm caudal to bregma at a depth of 3 mm directly into the lateral ventricle, as detailed previously (McLaughlin et al., 1999). The volume of these injections was 5 μl, using a 10-μl Hamilton microliter syringe. Reference agonists and antagonists were administered either subcutaneously (s.c.) or interperitoneally (i.p.) in 0.9% saline at the doses and times indicated in the figure legends (negative numbers indicate time prior to tail-withdrawal assay).
# [7] = molecular target: T4, KOR (Mus musculus, UniProt P33534); assay: 55° C. warm-water tail-withdrawal assay, antagonism of the KOR selective agonist U50,488; assay type: in vivo; conditions: for antagonism of the KOR selective agonist U50,488: tested 2-2.5 hours after peptide administration, i.c.v.; for duration of KOR antagonist activity: mice, tail-withdrawal assay
# T4 construct: from tissue; host or cells: living C57Bl/6J mice (in vivo)
# Method: as §3
# The ability of the cyclic tetrapeptides to function as KOR antagonists were studied by assessing the ability to antagonize the KOR selective agonist U50,488. […] Briefly, the antagonistic activity was tested 2-2.5 hours after peptide administration.
# The duration of KOR antagonism of the cyclic tetrapeptides was studied.
# [8] = molecular target: T5, κ opioid receptors (Rattus norvegicus, UniProt P34975); assay: Adenylyl cyclase assay (efficacy at κ opioid receptors); assay type: cell-based; conditions: 10 μM peptide; relative to dynorphin A-(1-13) amide (100%)
# T5 construct: expressed in transfected cells
# Method: as §1
# [9] = tested on: C57B1/6J mice; assay: Stress-induced reinstatement of cocaine conditioned place preference; assay type: in vivo, mouse; conditions: 3 nmol i.c.v. 40 minutes prior to forced swim stress
# Method: The establishment of cocaine conditioned place preference (CPP), extinction and stress-induced reinstatement of cocaine CPP were preformed in C57B1/6J mice as previously described (Carey, A. N.; Borozny, K.; Aldrich, J. V.; McLaughlin, J. P. Reinstatement of cocaine place-conditioning prevented by the peptide kappa-opioid receptor antagonist arodyn. Eur. J. Pharmacol. 2007, 569, 84-89). […] Place conditioning subsequently began immediately following cocaine administration (10 mg/kg s.c), whereupon mice were consistently confined for 30 min in the appropriate compartment in the CPP apparatus. Conditioning with assay vehicle (0.9% saline) followed 4 hours later in a similar manner, but paired to the opposite chamber. This conditioning cycle was repeated once on each of four days. On the fifth day, mice were again allowed to freely move through the apparatus. […]
# One group of animals was then subjected to a 2-day forced swim stress protocol (with a single long swim (15 minutes) on day 1, and a series of four 6-minutes trials on day 2) to produce reinstatement of cocaine CPP. […] One hour after the final exposure to forced swim stress, the place preference responses of the mice were determined as described above to determine possible reinstatement of cocaine CPP (FIG. 6, middle panel). […]
# [10] = molecular target: T6, DOR (Mus musculus, UniProt P32300); assay: 55° C. warm-water tail-withdrawal assay, antagonism of the DOR selective agonist SNC-80; assay type: in vivo; conditions: mice
# T6 construct: from tissue; host or cells: living C57Bl/6J mice (in vivo)
# Method: as §3
# (§4) The ability of JVA-2802 to selectively antagonize an opioid receptor was studied. Briefly, the antagonistic activity of JVA-2802 was studied for MOR, DOR, and KOR activity by the ability to antagonize the MOR selective agonist morphine, the DOR selective agonist SNC-80, and the KOR selective agonist U50,488.
# [11] = molecular target: T7, MOR (Mus musculus, UniProt P42866); assay: 55° C. warm-water tail-withdrawal assay, antagonism of the MOR selective agonist morphine; assay type: in vivo; conditions: mice
# T7 construct: from tissue; host or cells: living C57Bl/6J mice (in vivo)
# Method: as §3, §4
# [12] = CHO membranes expressing MOR, read-out: MOR Ki
# [13] = CHO membranes expressing DOR, read-out: DOR Ki
# [14] = CHO membranes expressing KOR, read-out: KOR Ki
# [15] = CHO cells stably expressing μ receptors, (n) in brackets, read-out: Ki (nM ± SEM) μ
# [16] = CHO cells stably expressing δ receptors, (n) in brackets, read-out: Ki (nM ± SEM) δ
# [17] = CHO cells stably expressing κ receptors, (n) in brackets, read-out: Ki (nM ± SEM) κ
# T4 sequence (P33534 whole entry): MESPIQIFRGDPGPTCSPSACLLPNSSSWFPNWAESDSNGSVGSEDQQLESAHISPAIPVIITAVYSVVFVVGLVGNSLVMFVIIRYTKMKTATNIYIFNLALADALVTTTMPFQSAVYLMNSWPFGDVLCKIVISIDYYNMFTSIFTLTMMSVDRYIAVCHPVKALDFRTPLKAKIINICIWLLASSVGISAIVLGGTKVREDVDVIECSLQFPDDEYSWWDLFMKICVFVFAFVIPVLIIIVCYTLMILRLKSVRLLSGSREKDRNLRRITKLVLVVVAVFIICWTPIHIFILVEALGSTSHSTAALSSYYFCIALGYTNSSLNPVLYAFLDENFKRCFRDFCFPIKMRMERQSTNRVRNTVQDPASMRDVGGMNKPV
# T2 sequence (P32300 whole entry): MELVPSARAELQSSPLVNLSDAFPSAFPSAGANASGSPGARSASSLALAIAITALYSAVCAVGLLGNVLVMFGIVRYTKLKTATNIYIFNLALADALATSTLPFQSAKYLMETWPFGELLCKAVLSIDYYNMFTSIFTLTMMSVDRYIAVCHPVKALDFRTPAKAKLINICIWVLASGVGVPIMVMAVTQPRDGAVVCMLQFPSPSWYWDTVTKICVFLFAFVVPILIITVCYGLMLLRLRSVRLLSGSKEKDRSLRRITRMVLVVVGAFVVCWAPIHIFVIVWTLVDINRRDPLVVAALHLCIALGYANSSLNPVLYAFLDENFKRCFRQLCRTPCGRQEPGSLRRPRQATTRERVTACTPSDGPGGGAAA
# T1 sequence (P33535 whole entry): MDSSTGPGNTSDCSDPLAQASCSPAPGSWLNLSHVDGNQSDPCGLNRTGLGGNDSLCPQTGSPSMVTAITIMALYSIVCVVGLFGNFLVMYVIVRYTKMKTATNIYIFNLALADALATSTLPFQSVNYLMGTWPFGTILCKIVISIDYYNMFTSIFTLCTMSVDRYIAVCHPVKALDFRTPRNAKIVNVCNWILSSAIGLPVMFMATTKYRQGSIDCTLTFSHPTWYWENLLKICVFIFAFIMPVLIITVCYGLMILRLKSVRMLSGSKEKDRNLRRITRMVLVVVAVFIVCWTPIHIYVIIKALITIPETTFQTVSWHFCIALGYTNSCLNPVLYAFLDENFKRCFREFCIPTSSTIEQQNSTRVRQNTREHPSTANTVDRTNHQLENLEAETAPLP
# T5 sequence (P34975 whole entry): as the sequence (P33534 whole entry) above, with D11E, S17A, S51P, A308V counted along it
# T3 sequence (P33534 whole entry): as the sequence (P33534 whole entry) above
# T7 sequence (P42866 whole entry): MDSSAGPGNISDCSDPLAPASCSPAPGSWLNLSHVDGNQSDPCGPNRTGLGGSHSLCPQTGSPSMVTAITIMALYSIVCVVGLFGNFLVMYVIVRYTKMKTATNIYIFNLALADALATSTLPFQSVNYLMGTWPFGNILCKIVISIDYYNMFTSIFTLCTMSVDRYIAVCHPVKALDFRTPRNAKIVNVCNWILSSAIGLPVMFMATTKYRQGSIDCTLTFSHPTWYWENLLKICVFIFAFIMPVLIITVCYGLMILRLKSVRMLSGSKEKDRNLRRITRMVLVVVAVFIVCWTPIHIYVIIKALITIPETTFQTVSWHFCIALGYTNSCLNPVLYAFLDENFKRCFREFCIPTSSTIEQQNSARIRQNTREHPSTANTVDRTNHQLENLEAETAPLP
# T6 sequence (P32300 whole entry): as the sequence (P32300 whole entry) above
compound,measurement,setting,value
CC(C)[C@@H](CN1CC[C@@](C)(c2cccc(O)c2)[C@@H](C)C1)NC(=O)[C@H]1Cc2ccc(O)cc2CN1 [JDTic],stress-induced reinstatement of cocaine-seeking behavior,[1],block stress-induced reinstatement
"C[C@@H]1C(=O)N[C@@H](Cc2ccccc2)C(=O)N[C@H](Cc2c[nH]c3ccccc23)C(=O)N[C@@H](Cc2ccccc2)C(=O)N1C [JVA 3001] (HELM PEPTIDE1{F.[C[C@H](C(=O)[*:2])N(C)[*:1]].F.[dW]}$PEPTIDE1,PEPTIDE1,1:R1-4:R2$$$V2.0)",Ki,[2]; [12],58.1 nM
same,Ki,[3]; [13],5690 nM
same,Ki,[4]; [14],68.9 nM
C[C@H]1NC(=O)[C@H](Cc2ccccc2)NC(=O)[C@H]2CCCN2C(=O)[C@H](Cc2ccccc2)NC1=O [JVA 3002],Ki,[2]; [12],774 nM
same,Ki,[3]; [13],11000 nM
same,Ki,[4]; [14],1250 nM
"C[C@@H]1NC(=O)[C@H]2CCCN2C(=O)[C@H](Cc2ccccc2)NC(=O)[C@@H](Cc2c[nH]c3ccccc23)NC1=O [JVA 3004] (HELM PEPTIDE1{A.[dW].F.[dP]}$PEPTIDE1,PEPTIDE1,1:R1-4:R2$$$V2.0)",Ki,[2]; [12],186 nM
same,Ki,[3]; [13],18000 nM
same,Ki,[4]; [14],169 nM
"O=C1N[C@@H](Cc2ccccc2)C(=O)N2CCC[C@@H]2C(=O)N[C@@H](Cc2ccccc2)C(=O)N[C@H]1Cc1c[nH]c2ccccc12 [JVA-2801, cyclo[Trp-Phe-D-Pro-Phe]] (HELM PEPTIDE1{F.W.F.[dP]}$PEPTIDE1,PEPTIDE1,1:R1-4:R2$$$V2.0)",Ki,[5],~21 nM
same,Ki,[2]; [15],619 ± 87 nM
same,agonist activity in the 55° C. warm water tail withdrawal assay,[6],can function as agonists; also recorded: robust agonist activity
same,reversal of agonist activity by the KOR selective antagonist nor-BNI,[6]; i.c.v. peptide,partially reversed
same,reversal of agonist activity by the MOR selective antagonist β-FNA,[6]; i.c.v. peptide,completely reversed
same,Ki,[3]; [16],4150 ± 3020 nM
same,Ki,[4]; [17],35.4 ± 3.6 nM
same,"antagonism of the KOR selective agonist U50,488",[7],dose-dependent antagonism
same,Cyclase screen (% control),[8],119%
"O=C1N[C@H](Cc2c[nH]c3ccccc23)C(=O)N[C@@H](Cc2ccccc2)C(=O)N2CCC[C@@H]2C(=O)N[C@H]1Cc1ccccc1 [JVA-2802, cyclo[D-Trp-Phe-D-Pro-Phe]] (HELM PEPTIDE1{F.[dP].F.[dW]}$PEPTIDE1,PEPTIDE1,1:R1-4:R2$$$V2.0)",stress-induced reinstatement of cocaine conditioned place preference,[9],blocks stress-induced reinstatement
same,antagonism of the DOR selective agonist SNC-80,[10],does not antagonize
same,Ki,[2]; [15],259 ± 29 nM
same,agonist activity in the 55° C. warm water tail withdrawal assay,[6],did not show any agonist activity; also recorded: did not exhibit any agonist activity
same,Ki,[3]; [16],2910 ± 1350 nM
same,Ki,[4]; [17],30.6 ± 3.4 nM
same,antagonism of the MOR selective agonist morphine,[11],does not antagonize
same,duration of KOR antagonist activity,[7],less than a day
same,"antagonism of the KOR selective agonist U50,488",[7],dose-dependent antagonism
same,Cyclase screen (% control),[8],127%
"C[C@@H]1NC(=O)[C@H](Cc2c[nH]c3ccccc23)NC(=O)[C@H](Cc2ccccc2)NC(=O)[C@H]2CCCN2C1=O [JVA-2803, cyclo[Trp-Ala-D-Pro-Phe]] (HELM PEPTIDE1{A.[dP].F.W}$PEPTIDE1,PEPTIDE1,1:R1-4:R2$$$V2.0)",Ki,[2]; [15],32.1 ± 3.9 nM
same,fold higher MOR affinity than JVA-2801,[2]; relative to JVA-2801,19 fold
same,agonist activity in the 55° C. warm water tail withdrawal assay,[6],can function as agonists; also recorded: more potent than JVA-2801
same,pattern of opioid activity in vivo,[6],exhibit both agonist activity and KOR antagonist activity
same,Ki,[3]; [16],8680 ± 1270 nM
same,Ki,[4]; [17],8.03 ± 1.67 nM
same,fold higher KOR affinity than the parent peptide,"[4]; relative to parent (Phe) peptide / CJ-15,208",4 fold
same,duration of KOR antagonist activity,[7],less than a day
same,"antagonism of the KOR selective agonist U50,488",[7],more potent than JVA-2801
same,"antagonism of the KOR selective agonist U50,488",[7]; listed as 2803,exhibits KOR antagonist activity
same,Cyclase screen (% control),[8],122%
"C[C@@H]1NC(=O)[C@@H](Cc2c[nH]c3ccccc23)NC(=O)[C@H](Cc2ccccc2)NC(=O)[C@H]2CCCN2C1=O [JVA-3003, cyclo[D-Trp-Ala-D-Pro-Phe]] (HELM PEPTIDE1{A.[dP].F.[dW]}$PEPTIDE1,PEPTIDE1,1:R1-4:R2$$$V2.0)",Ki,[2]; [12],27.3 nM
same,agonist activity in the 55° C. warm water tail withdrawal assay,[6],can function as an agonist; also recorded: robust agonist activity
same,pattern of opioid activity in vivo,[6],exhibits a pattern similar to the L-Trp peptides
same,Ki,[3]; [16],8330 ± 1220 nM
same,Ki,[3]; [13],833 nM
same,Ki,[4]; [17],3.15 ± 0.41 nM
same,Ki,[4]; [14],2.81 nM
same,duration of KOR antagonist activity,[7],less than a day
same,"antagonism of the KOR selective agonist U50,488",[7],exhibits KOR antagonist activity
same,Cyclase screen (% control),[8],75%
